Source: paper PMC9851200, “Multiparameter phenotypic screening for endogenous TFEB and TFE3 translocation identifies novel chemical series modulating lysosome function” (Autophagy, 2022)

What was measured:
GFP-Ex1HTT74Q = experiment: HTT aggregation assay, PC12 cells expressing GFP-Ex1HTT74Q; assay type: cell-based; conditions: 48 h, 16 nM - 2 µM
Description: PC12 cells stably expressing GFP-tagged exon 1 of HTT with a 74-repeat polyglutamine-expansion (GFP-Ex1HTT74Q) under tetracycline-inducible promoter control [41]were maintained at 37°C and 5% CO2 in RPMI medium (Sigma Aldrich, R8758) supplemented with 10% horse serum (Sigma Aldrich, H1138), 5% fetal bovine serum, 1% Glutamine (Sigma Aldrich, G7513), 1% Pen-Strep (Sigma, P0781), 0.1 mg/mL G418 (ThermoFisher, 10,131,035), and 0.07 mg/mL hygromycin B (ThermoFisher, 10,687,010). Cells were plated at a density of 10,000 per well in 96-well black cycloolefin thin-bottom plates (Perkin Elmer, 6,055,300) coated with collagen IV (Sigma Aldrich, C5533). After 5 h, expression of GFP-Ex1HttQ74 was induced with doxycycline (100 ng/mL; Sigma Aldrich, D3447). After 16 h of induction, compounds (final concentrations 16 nM – 2 µM) were added in fresh medium with doxycycline (100 ng/ml). Final concentration of DMSO (Sigma Aldrich, D8418) was 0.1% in all wells. After 48 h of incubation in the presence of compound, cells were washed once in PBS and fixed with 4% paraformaldehyde (Thermofisher Scientific, 28,908) supplemented with 10 µg/mL Hoechst 33,342 (ThermoFisher Scientific, H3570) for 15 min. […] Image feature extraction was carried out using CellProfiler software. Data aggregation, normalization and distance score calculations were carried out using StratoMineR software.

SRPK1, SRPK2 = experiment: KiNativ in-cell kinase binding, SRPK1, SRPK2; conditions: 2 µM
Source text: As KINOMEscan is an in vitro assay, and as different cell types have variable kinase expression profiles we sought to determine the kinase binding profile in our SH-SY5Y TFEB-relocalization cell model. […] Bound kinases were pulled down and analyzed by mass spectrometry to determine the in situ kinase binding profile for each compound.

[1] = target: kinases (KINOMEscan panel) (Homo sapiens, UniProt O94768); assay type: binding
kinases (KINOMEscan panel) (Homo sapiens, UniProt O94768), sequence (O94768 whole entry): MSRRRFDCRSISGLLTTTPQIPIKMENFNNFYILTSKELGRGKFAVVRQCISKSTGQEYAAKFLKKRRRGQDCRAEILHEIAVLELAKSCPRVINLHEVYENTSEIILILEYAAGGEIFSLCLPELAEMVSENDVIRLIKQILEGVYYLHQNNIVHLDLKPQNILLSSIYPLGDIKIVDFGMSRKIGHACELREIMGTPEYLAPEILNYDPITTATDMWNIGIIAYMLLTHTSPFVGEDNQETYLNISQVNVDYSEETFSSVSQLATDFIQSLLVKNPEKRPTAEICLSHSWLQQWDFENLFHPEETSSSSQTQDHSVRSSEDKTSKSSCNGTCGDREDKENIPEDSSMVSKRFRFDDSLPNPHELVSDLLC

[2] = target: kinases (KINOMEscan panel) (Homo sapiens, UniProt O95382); assay type: binding
kinases (KINOMEscan panel) (Homo sapiens, UniProt O95382), sequence (O95382 whole entry): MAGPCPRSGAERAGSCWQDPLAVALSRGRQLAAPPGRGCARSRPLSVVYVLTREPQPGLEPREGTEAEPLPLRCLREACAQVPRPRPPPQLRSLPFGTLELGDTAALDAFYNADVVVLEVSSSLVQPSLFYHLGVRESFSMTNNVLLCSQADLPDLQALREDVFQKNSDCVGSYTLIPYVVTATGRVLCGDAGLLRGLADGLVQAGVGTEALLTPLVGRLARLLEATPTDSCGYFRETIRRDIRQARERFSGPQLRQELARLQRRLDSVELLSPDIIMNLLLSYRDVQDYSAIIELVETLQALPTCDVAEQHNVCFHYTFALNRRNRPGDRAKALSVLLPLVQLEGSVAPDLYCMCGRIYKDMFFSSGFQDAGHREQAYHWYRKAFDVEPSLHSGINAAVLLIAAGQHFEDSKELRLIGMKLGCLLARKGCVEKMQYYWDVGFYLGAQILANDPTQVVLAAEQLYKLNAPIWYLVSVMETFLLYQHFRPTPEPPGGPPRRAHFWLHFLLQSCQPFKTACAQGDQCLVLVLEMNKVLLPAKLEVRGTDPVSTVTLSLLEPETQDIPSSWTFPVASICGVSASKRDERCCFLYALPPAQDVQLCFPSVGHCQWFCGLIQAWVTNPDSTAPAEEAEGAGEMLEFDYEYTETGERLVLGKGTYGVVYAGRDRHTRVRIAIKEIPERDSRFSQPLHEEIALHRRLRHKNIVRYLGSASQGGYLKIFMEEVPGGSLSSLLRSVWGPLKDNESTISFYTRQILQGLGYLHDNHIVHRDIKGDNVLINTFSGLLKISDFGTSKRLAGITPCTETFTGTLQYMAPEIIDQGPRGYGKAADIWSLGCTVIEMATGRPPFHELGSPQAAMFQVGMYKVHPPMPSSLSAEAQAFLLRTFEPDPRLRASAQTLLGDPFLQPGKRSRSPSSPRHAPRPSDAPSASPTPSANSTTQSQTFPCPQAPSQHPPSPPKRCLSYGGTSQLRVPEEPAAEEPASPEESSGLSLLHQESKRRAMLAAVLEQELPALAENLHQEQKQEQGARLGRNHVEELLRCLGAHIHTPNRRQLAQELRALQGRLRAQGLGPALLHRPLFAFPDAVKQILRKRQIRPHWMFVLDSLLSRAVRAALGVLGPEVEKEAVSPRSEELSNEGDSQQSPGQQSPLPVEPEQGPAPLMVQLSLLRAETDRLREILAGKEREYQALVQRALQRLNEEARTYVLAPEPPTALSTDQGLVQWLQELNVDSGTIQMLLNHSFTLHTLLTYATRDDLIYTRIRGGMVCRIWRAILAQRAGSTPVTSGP

[3] = target: kinases (KINOMEscan panel) (Homo sapiens, UniProt P04629); assay type: binding
[4] = target: kinases (KINOMEscan panel) (Homo sapiens, UniProt P0C264); assay type: binding
kinases (KINOMEscan panel) (Homo sapiens, UniProt P0C264), sequence (P0C264 whole entry): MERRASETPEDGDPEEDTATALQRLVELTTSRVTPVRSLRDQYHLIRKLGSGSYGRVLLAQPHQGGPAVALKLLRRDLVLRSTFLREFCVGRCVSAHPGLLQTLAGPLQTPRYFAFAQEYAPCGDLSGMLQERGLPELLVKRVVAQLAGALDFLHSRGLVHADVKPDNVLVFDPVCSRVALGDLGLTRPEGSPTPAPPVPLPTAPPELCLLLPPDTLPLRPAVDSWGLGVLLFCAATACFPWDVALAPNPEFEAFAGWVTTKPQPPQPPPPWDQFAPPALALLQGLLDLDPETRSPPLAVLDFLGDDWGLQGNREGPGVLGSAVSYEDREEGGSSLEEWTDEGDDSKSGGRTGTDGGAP

[5] = target: kinases (KINOMEscan panel) (Homo sapiens, UniProt P23443); assay type: binding
kinases (KINOMEscan panel) (Homo sapiens, UniProt P23443), sequence (P23443 whole entry): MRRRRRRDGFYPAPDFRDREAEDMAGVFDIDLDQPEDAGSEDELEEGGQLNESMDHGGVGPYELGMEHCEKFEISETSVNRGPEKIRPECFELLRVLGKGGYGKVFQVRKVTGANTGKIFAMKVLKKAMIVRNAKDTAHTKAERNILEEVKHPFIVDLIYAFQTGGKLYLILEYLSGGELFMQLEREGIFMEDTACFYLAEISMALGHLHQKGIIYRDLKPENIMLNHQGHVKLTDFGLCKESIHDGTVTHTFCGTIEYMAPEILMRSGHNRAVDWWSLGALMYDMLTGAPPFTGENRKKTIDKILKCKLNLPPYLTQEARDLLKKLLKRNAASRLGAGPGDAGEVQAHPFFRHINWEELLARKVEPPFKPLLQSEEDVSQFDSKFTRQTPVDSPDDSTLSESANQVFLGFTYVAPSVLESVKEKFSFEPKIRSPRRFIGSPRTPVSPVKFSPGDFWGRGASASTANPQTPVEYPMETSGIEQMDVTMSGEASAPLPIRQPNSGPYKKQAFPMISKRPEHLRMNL

[6] = target: kinases (KINOMEscan panel) (Homo sapiens, UniProt P45985); assay type: binding
kinases (KINOMEscan panel) (Homo sapiens, UniProt P45985), sequence (P45985 whole entry): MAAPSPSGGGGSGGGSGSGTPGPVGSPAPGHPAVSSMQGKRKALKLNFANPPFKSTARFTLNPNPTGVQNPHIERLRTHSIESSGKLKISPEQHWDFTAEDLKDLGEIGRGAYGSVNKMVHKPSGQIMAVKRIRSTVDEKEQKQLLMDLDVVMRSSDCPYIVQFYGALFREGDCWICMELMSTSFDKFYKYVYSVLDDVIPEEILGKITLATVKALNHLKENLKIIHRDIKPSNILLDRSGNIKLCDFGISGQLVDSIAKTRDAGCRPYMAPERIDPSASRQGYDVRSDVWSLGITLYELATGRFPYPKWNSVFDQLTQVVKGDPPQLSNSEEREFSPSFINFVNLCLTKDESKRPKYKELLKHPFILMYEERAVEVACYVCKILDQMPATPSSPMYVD

[7] = target: kinases (KINOMEscan panel) (Homo sapiens, UniProt Q13153); assay type: binding
kinases (KINOMEscan panel) (Homo sapiens, UniProt Q13153), sequence (Q13153 whole entry): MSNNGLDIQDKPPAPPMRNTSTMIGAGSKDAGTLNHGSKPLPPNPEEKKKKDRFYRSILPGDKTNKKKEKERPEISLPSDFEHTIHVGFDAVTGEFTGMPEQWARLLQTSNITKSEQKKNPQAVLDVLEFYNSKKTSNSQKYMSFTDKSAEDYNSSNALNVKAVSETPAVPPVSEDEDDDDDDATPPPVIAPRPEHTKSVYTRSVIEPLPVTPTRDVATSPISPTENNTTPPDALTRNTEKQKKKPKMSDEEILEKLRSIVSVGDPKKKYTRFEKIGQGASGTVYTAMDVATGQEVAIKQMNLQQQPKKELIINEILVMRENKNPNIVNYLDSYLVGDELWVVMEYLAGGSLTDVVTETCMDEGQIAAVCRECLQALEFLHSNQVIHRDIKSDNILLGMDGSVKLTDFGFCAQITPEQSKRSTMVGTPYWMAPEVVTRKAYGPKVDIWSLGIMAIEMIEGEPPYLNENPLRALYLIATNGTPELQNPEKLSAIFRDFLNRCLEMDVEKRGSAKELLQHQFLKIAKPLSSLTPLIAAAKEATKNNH

[8] = target: kinases (KINOMEscan panel) (Homo sapiens, UniProt Q14289); assay type: binding
kinases (KINOMEscan panel) (Homo sapiens, UniProt Q14289), sequence (Q14289 whole entry): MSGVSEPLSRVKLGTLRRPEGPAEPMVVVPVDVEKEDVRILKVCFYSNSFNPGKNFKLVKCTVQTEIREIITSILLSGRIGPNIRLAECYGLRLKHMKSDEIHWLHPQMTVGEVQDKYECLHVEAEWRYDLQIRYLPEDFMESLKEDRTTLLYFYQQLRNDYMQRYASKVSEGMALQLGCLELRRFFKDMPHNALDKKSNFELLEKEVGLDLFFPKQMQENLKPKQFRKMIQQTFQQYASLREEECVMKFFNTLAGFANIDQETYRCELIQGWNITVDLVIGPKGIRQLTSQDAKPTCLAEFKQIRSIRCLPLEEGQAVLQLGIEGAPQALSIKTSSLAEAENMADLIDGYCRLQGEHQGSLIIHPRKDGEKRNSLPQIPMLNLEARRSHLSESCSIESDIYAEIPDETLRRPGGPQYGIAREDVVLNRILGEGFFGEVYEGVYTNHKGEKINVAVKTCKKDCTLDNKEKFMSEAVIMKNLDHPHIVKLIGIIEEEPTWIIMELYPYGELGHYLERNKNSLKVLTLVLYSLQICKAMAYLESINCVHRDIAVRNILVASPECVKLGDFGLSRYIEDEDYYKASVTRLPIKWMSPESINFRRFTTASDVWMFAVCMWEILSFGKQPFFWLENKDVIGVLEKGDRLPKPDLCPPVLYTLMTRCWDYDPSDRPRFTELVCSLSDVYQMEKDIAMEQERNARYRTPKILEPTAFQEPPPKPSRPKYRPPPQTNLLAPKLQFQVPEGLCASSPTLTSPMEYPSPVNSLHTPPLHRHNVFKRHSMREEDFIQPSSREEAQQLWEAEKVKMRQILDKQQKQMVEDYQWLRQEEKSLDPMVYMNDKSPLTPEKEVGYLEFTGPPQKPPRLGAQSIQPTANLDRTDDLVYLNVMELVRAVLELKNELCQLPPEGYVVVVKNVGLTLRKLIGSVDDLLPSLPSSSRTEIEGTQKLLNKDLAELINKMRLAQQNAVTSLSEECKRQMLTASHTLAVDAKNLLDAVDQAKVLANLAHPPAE

[9] = target: kinases (KINOMEscan panel) (Homo sapiens, UniProt Q8WU08); assay type: binding
kinases (KINOMEscan panel) (Homo sapiens, UniProt Q8WU08), sequence (Q8WU08 whole entry): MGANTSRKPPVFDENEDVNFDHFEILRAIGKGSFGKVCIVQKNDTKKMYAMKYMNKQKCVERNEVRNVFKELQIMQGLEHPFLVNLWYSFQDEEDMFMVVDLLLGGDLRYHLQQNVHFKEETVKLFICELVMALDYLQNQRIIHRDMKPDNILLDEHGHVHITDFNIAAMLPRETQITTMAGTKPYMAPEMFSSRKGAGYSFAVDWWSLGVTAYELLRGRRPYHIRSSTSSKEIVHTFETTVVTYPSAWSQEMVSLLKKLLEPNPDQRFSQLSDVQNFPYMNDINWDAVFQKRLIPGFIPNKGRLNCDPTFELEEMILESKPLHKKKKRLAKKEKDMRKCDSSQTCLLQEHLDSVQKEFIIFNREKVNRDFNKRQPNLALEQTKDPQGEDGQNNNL

[10] = target: kinases (KINOMEscan panel) (Homo sapiens, UniProt Q92918); assay type: binding

Row | Compound | HTT fluorescent aggregates / cells bearing aggregates (in words) (GFP-Ex1HTT74Q) | KiNativ in-cell binding, % Inhibition, SRPK1, SRPK2 (SRPK1, SRPK2) | KINOMEscan STK17B/DRAK2 [1] | KINOMEscan MAP3K6/ASK2 [2] | KINOMEscan NTRK1/TRKA [3] | KINOMEscan SBK3/SgK110 [4] | KINOMEscan RPS6KB1/S6K1 [5] | KINOMEscan MAP2K4/MEK4 [6] | KINOMEscan PKN1/PAK1 [7] | KINOMEscan PTK2B/PYK2 [8] | KINOMEscan STK32A/YANK1 [9] | KINOMEscan MAP4K1/HPK1 [10]
1 | Cc1cccc(-c2nc(Nc3ccc4ncsc4c3)c3ccccc3n2)n1 [NK140] | no reduction in fluorescent aggregates | 80.8% | – | – | – | – | – | – | – | – | – | –
2 | Cc1cccc(-c2nc(N(C)c3ccc4ncsc4c3)c3ccccc3n2)n1 [NK-161] | – | – | 4 | 0 | 22 | 0 | 0 | 0 | 0 | 9 | 0 | 0
